Measured values as given in patent US20060247303A1, “7H-dibenzo[b,g][1,5]dioxocin-5-one derivatives and use thereof” (BAYER HEALTHCARE AG, priority 2002, published 2006).

biological target: T1, CETP (Homo sapiens, UniProt P11597); assay: CETP fluorescence test; type: biochemical; settings: CETP from human plasma, transfer of fluorescent cholesterol ester between liposomes, 37° C., 4 hours; read-out: IC50 [nM] Fluor. test
T1 construct: enriched CETP fraction, obtained from human plasma by means of hydrophobic chromatography; from tissue; host or cells: human plasma
T1 sequence (P11597 18-493): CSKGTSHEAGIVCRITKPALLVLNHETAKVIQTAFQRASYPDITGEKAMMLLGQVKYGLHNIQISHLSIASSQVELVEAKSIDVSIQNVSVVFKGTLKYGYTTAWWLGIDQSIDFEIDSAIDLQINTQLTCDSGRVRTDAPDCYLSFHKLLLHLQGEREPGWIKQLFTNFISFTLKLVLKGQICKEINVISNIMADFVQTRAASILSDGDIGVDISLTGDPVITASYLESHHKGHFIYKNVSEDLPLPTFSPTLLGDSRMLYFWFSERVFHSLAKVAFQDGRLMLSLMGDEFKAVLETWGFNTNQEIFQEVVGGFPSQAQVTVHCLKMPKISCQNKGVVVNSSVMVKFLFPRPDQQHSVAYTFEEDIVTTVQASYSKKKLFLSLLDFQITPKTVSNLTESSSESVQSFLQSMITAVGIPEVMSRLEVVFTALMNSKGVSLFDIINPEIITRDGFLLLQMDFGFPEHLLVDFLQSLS
Protocol: CETP is obtained in partially purified form from human plasma by differential centrifugation and column chromatography and used for the test. To this end, human plasma is adjusted to a density of 1.21 g per ml using NaBr and centrifuged at 4° C. at 50 000 rpm for 18 h. The bottom fraction (d>1.21 g/ml) is applied to a Sephadex® Phenyl-Sepharose 4B (Pharmacia) column, washed with 0.15 M NaCl/0.001 M tris HCl pH 7.4 and then eluted with distilled water. The CETP-active fractions are pooled, dialysed against 50 mM sodium acetate pH 4.5 and applied to a CM-Sepharose® column (Pharmacia). The mixture is then eluted using a linear gradient (0-1 M NaCl). The pooled CETP fractions are dialysed against 10 mM Tris HCl pH 7.4 and then further purified by chromatography on a Mono Q® column (Pharmacia).
Measurement of the CETP-catalysed transfer of a fluorescent cholesterol ester between liposomes—modified according to the procedure of Bisgaier et al., J. Lipid Res. 34, 1625 (1993):
For the production of the donor liposomes, 1 mg of cholesteryl 4,4-difluoro-5,7-dimethyl-4-bora-3a,4a-diaza-s-indacene-3-dodecanoate (cholesteryl BODIPY® FL C12, Molecular Probes) is dissolved in 600 μl of dioxane with 5.35 mg of triolein and 6.67 mg of phosphatidylcholine with gentle warming in an ultrasonic bath and this solution is added very slowly with ultrasonication to 63 ml of 50 mM tris/HCl, 150 mM NaCl, 2 mM EDTA buffer pH 7.3 at RT.
The suspension is then ultrasonicated under an N2 atmosphere for 30 minutes in the Braukson ultrasonic bath at about 50 watts, the temperature being kept at about 20° C.
The acceptor liposomes are obtained analogously from 86 mg of cholesteryl oleate, 20 mg of triolein and 100 mg of phosphatidylcholine dissolved in 1.2 ml of dioxane and 114 ml of above buffer by ultrasonication at 50 watts (20° C.) for 30 minutes.
For testing, a test mix consisting of 1 part of above buffer, 1 part of donor liposomes and 2 parts of acceptor liposomes is used.
80 μl of test mix are treated with 1-3 μg of enriched CETP fraction, obtained from human plasma by means of hydrophobic chromatography, and 2 μl of the substance to be investigated in DMSO and incubated at 37° C. for 4 hours.
The change in the fluorescence at 485/535 nm is a measure of the CE transfer; the inhibition of the transfer in comparison to the control batch without substance is determined.

Row | SMILES | IC50
1 | COc1c(C(O)CC(C)(C)C)ccc2c1C(=O)OCc1c(Cl)c(C)c(C3CC3)c(OC(=O)C3(C)C4CCC3CC4)c1O2 (centres unmarked) [Example C-62] | 60 nM
2 | COc1c([C@@H](O)CC(C)C)ccc2c1C(=O)OCc1c(C#N)c(C)cc(OCCC(C)C)c1O2 [Example A-78, 9-[(1S)-1-Hydroxy-3-methylbutyl]-1-(isopentyloxy)-8-methoxy-3-methyl-7-oxo-5H,7H-dibenzo[b,g][1,5]dioxocin-4-carbonitrile] | 3000 nM
3 | COc1c([C@@H](O)CC(C)C)ccc2c1C(=O)OCc1c(Cl)c(C)c(Br)c(OC(=O)C3CCC3)c1O2 [Example B-50] | 250 nM
4 | COc1c(C(O)CC(C)(C)C)ccc2c1C(=O)OCc1cc(C)cc(OCCC(C)C)c1O2 (centres unmarked) [Example A-55, 3-(1-Hydroxy-3,3-dimethylbutyl)-11-(isopentyloxy)-4-methoxy-9-methyl-5H,7H-dibenzo[b,g][1,5]dioxocin-5-one] | 1500 nM
5 | COc1c([C@@H](O)CC(C)C)ccc2c1C(=O)OCc1cc(C)cc(OS(=O)(=O)C(C)C)c1O2 [Example A-42, 9-[(1S)-1-Hydroxy-3-methylbutyl]-8-methoxy-3-methyl-7-oxo-5H,7H-dibenzo[b,g]-[1,5]-dioxocin-1-yl 2-propanesulphonate] | 700 nM
6 | COc1c([C@@H](O)CC(C)C)ccc2c1C(=O)OC(C)c1cc(C)cc(OCCC(C)C)c1O2 (mixture of isomers) [Example A-80, [(1S)-1-Hydroxy-3-methylbutyl]-11-(isopentyloxy)-4-methoxy-7,9-dimethyl-5H,7H-dibenzo[b,g][1,5]dioxocin-5-one] | 5000 nM
7 | COc1c(C(O)CC(C)C)ccc2c1C(=O)OCc1cc(C)cc(C#CCC(C)C)c1O2 (centres unmarked) [Example A-63] | 2000 nM
8 | COc1c([C@@H](O)CC(C)C)ccc2c1C(=O)OCc1c(C)c(C)c(C)c(OC(=O)C(C)(C)C)c1O2 [Example A-35] | 200 nM
9 | COc1c(C(O)CC(C)C)ccc2c1C(=O)OCc1cc(C)cc(CCC3CCCC3)c1O2 (centres unmarked) [Example A-70, 11-(2-Cyclopentylethan-1-yl)-3-(1-hydroxy-3-methylbutyl)-4-methoxy-9-methyl-5H,7H-dibenzo[b,g][1,5]dioxocin-5-one] | 2000 nM
10 | COc1c([C@@H](O)CC(C)C)ccc2c1C(=O)OCc1cc(C)c(Cl)c(OC(=O)[C@@]3(C)C[C@H]4CC[C@@H]3C4)c1O2 [Example C-22] | 75 nM
11 | COc1c(C(O)CC(C)C)ccc2c1C(=O)OCc1c(F)c(C)c(C)c(OC(=O)C3(C)C4CCC3CC4)c1O2 (centres unmarked) [Example C-128] | 55 nM
12 | COc1c([C@@H](O)CC(C)C)ccc2c1C(=O)OCc1c(Cl)c(C)c(Br)c(OC(=O)C3(C)C4CCC3CC4)c1O2 (some centres unmarked) [Example C-37] | 60 nM
13 | COc1c([C@@H](O)CC(C)C)ccc2c1C(=O)OCc1c(Cl)c(C)c(Cl)c(OC(=O)N3CC4CCC(C3)O4)c1O2 [Example B-165] | 300 nM
14 | COc1c([C@@H](O)CC(C)C)ccc2c1C(=O)OCc1c(Br)c(C)c(Br)c(OCCCC(F)(F)F)c1O2 [Example B-1, 8,10-Dibromo-3-[(1S)-1-hydroxy-3-methylbutyl]-4-methoxy-9-methyl-11-(4,4,4-trifluorobutoxy)-5H,7H-dibenzo[b,g][1,5]dioxocin-5-one] | 1000 nM
15 | COc1c([C@@H](O)CC(C)C)ccc2c1C(=O)OCc1c(Cl)c(C)c(C)c(OC(=O)[C@@]3(C)C[C@H]4CC[C@@H]3C4)c1O2 [Example C-47] | 50 nM
16 | COCc1c(C)c(Cl)c2c(c1OC(=O)C1(C)C3CCC1CC3)Oc1ccc([C@@H](O)CC(C)C)c(OC)c1C(=O)OC2 (some centres unmarked) [Example C-66] | 50 nM
17 | COc1c([C@@H](O)CC(C)C)ccc2c1C(=O)OCc1cc(C)cc(OC(=O)C3(C)CC3(F)F)c1O2 (some centres unmarked) [Example B-22] | 700 nM
18 | COc1c([C@@H](O)CC(C)C)ccc2c1C(=O)OCc1c(Cl)c(C)c(Cl)c(OC(=O)C(C)(C)C)c1O2 [Example A-47] | 200 nM
19 | COc1c([C@@H](O)CC(C)C)ccc2c1C(=O)OCc1cc(C(F)F)cc(OCCC(C)C)c1O2 [Example B-176, 9-(Difluoromethyl)-3-[(1S)-1-hydroxy-3-methylbutyl]-11-(isopentyloxy)-4-methoxy-5H,7H-dibenzo[b,g][1,5]dioxocin-5-one] | 5000 nM
20 | COc1c([C@@H](O)CC(C)C)ccc2c1C(=O)OCc1cc(C)cc(OCC3CC4C=CC3C4)c1O2 (stereo partly drawn) [Example B-5, 3-[(1S)-1-Hydroxy-3-methylbutyl]-4-methoxy-9-methyl-11-(bicyclo[2.2.1]hept-5-en-2-ylmethoxy)-5H,7H-dibenzo[b,g][1,5]dioxocin-5-one] | 1500 nM
21 | COc1c([C@@H](O)CC(C)C)ccc2c1C(=O)OCc1c(Cl)c(C)c(Br)c(OC(=O)C3(C)CCCCC3)c1O2 [Example C-67] | 90 nM
22 | COc1c([C@@H](O)CC(C)C)ccc2c1C(=O)OCc1c(Br)c(C)c(Cl)c(OC(=O)[C@@]3(C)C[C@H]4CC[C@@H]3C4)c1O2 [Example C-21] | 70 nM
23 | COc1c(C(O)CC(C)C)ccc2c1C(=O)OCc1c(F)c(C)cc(OCCC(C)C)c1O2 (centres unmarked) [Example A-64] | 500 nM
24 | COc1c([C@@H](O)CC(C)C)ccc2c1C(=O)OCc1cc(C)cc(OC(=O)C3(c4cccc(F)c4)CCCCC3)c1O2 [Example B-8] | 1000 nM
25 | COc1c([C@@H](O)CC(C)C)ccc2c1C(=O)OC(C)c1cc(C)cc(OC(=O)C3(C)C4CCC3CC4)c1O2 (some centres unmarked) [Example C-120] | 100 nM
26 | CCc1c(C)cc2c(c1OC(=O)[C@@]1(C)C[C@H]3CC[C@@H]1C3)Oc1ccc([C@@H](O)CC(C)C)c(OC)c1C(=O)OC2 [Example C-91] | 40 nM
27 | COc1c([C@@H](O)CC(C)C)ccc2c1C(=O)OCc1c(Cl)c(C)cc(OC(=O)C(C)(C)CF)c1O2 [Example B-42] | 300 nM
28 | CCc1c(C)c(Cl)c2c(c1OC(=O)C1(C)C3CCC1CC3)Oc1ccc([C@@H](O)CC(C)C)c(OC)c1C(=O)OC2 (some centres unmarked) [Example C-65] | 50 nM
29 | COc1c([C@@H](O)CC(C)C)ccc2c1C(=O)OCc1c(C)c(C)c(C)c(OC(=O)C3(C)C4CCC3CC4)c1O2 (some centres unmarked) [Example C-82] | 60 nM
